Measurements taken from patent publication US9877981B2, “NAD biosynthesis and precursors for the treatment and prevention of cancer and proliferation” (President and Fellows of Harvard College, priority 2012, dated 2018).

Test system: lactate
Assay: Lactate levels in skeletal muscle of treated mice
Type: in vivo
Conditions: 6- and 22-month-old mice; NMN one week
From the text: C57BL/6J mice of 6, 22, or 30 months of age were obtained from the National Institutes of Aging mouse aging colony. Additionally 22 months old caloric restricted mice were also obtained from the National Institutes of Aging mouse aging colony. EGLN1 KO, SIRT1 KO and SIRT1 OE mice were generated as previously described (Minamishima et al., 2008; Price et al., 2012). Mice were acclimated for at least one-week prior to sacrifice. 3, 6, 22 and 24-month-old mice were given interperitoneal (IP) injections of 500 mg NMN/kg body weight per day or the equivalent volume of PBS for 7 consecutive days at 5:00 pm and 7:00 am on day 8 and sacrificed 4 hr after last injection.
C57BL/6J mice of 3, 6, 22, or 24 months of age were obtained from the National Institutes of Aging mouse aging colony. Additionally 22 months old caloric restricted mice were also obtained from the National Institutes of Aging mouse aging colony. Mice were acclimated for at least one-week prior to sacrifice. 3, 6, 22 and 24-month-old mice were given interperitoneal (IP) injections of 500 mg NMN/kg body weight per day or the equivalent volume of PBS for 7 consecutive days at 5:00 pm and 7:00 am on day 8 and sacrificed 4 hr after last injection. […]
Lactate from skeletal muscle was quantified with a commercially available kit (BioVision) according to the manufacturer's instructions.

## NC(=O)c1ccc[n+]([C@@H]2O[C@H](COP(=O)([O-])O)[C@@H](O)[C@H]2O)c1 [NMN, nicotinamide mononucleotide]
  lactate levels in the skeletal muscle: suppressed the increase in lactate levels
